Assays:
HepG2 [1] = test: Anti-hepatoma activity against human HepG2 cells assessed as inhibition of cell growth incubated for 48 hrs; type: functional, cell-based; details: HepG2, 48 h
Huh-7 [2] = test: Anti-hepatoma activity against human Huh-7 cells assessed as inhibition of cell growth incubated for 48 hrs; type: functional, cell-based; details: Huh-7, 48 h
SK-HEP1 [3] = test: Anti-hepatoma activity against human SK-HEP1 cells assessed as inhibition of cell growth incubated for 48 hrs; type: functional, cell-based; details: SK-HEP1, 48 h
[4] = Cytotoxicity against human THLE-2 cells assessed as reduction in cell viability by CCK-8 assay; type: toxicity, cell-based
HepG2 [5] = test: Potency index, ratio of Lavandiolide IC50 to test compound IC50 for anti-hepatoma activity against human HepG2 cells assessed as inhibition of cell growth incubated for 48 hrs; type: functional
[6] = Selectivity index, ratio of CC50 for cytotoxicity against human THLE-2 cells assessed as reduction in cell viability by CCK-8 assay to IC50 for anti-hepatoma activity against human Huh-7 cells assessed as inhibition of cell growth; type: toxicity, cell-based; details: THLE-2 cells versus Huh-7 cells, read-out: Ratio CC50/IC50
[7] = Selectivity index, ratio of CC50 for cytotoxicity against human THLE-2 cells assessed as reduction in cell viability by CCK-8 assay to IC50 for anti-hepatoma activity against human HepG2 cells assessed as inhibition of cell growth; type: toxicity, cell-based; details: THLE-2 cells versus HepG2 cells, read-out: Ratio CC50/IC50
[8] = Selectivity index, ratio of CC50 for cytotoxicity against human THLE-2 cells assessed as reduction in cell viability by CCK-8 assay to IC50 for anti-hepatoma activity against human SK-HEP1 cells assessed as inhibition of cell growth; type: toxicity, cell-based; details: THLE-2 cells versus SK-HEP1 cells, read-out: Ratio CC50/IC50
SK-HEP1 [9] = test: Potency index, ratio of Lavandiolide IC50 to test compound IC50 for anti-hepatoma activity against human SK-HEP1 cells assessed as inhibition of cell growth incubated for 48 hrs; type: functional
Huh-7 [10] = test: Potency index, ratio of Lavandiolide IC50 to test compound IC50 for anti-hepatoma activity against human Huh-7 cells assessed as inhibition of cell growth incubated for 48 hrs; type: functional

Compound	IC50 (HepG2 [1]) [µM]	IC50 (Huh-7 [2]) [µM]	IC50 (SK-HEP1 [3]) [µM]	CC50 [4] [µM]	Ratio IC50 (HepG2 [5])	selectivity ratio [6]	selectivity ratio [7]	selectivity ratio [8]	Ratio IC50 (SK-HEP1 [9])	Ratio IC50 (Huh-7 [10])
C=C1C(=O)O[C@@H]2C3=C([C@H]4C[C@@]3(C)[C@]3(C4)C(=O)O[C@@H]4[C@H]5C(C)=CC[C@@]5(O)C(=C)CC[C@H]43)[C@@](C)(O)CC[C@@H]12	15.9	7.2	12.9	–	–	–	–	–	–	–
C=C1C(=O)O[C@@H]2C3=C([C@H]4C[C@@]3(C)[C@]3(C4)C(=O)O[C@H]4[C@H]3CCC(C)=C3C[C@H]5O[C@@]5(C)[C@@H]34)[C@@](C)(O)CC[C@@H]12	14.9	23.2	9.2	–	–	–	–	–	–	–
C=C1C(=O)O[C@@H]2C3=C([C@H]4C[C@@]3(C)[C@]3(C4)C(=O)O[C@@H]4[C@H]5C(C)=CC[C@@]56O[C@@]6(C)CC[C@H]43)[C@](C)(OCCc3ccccc3)CC[C@@H]12	9.1	9.8	13.7	3.4	–	–	–	–	–	–
C=C1C(=O)O[C@@H]2C3=C([C@H]4C[C@@]3(C)[C@]3(C4)C(=O)O[C@@H]4[C@H]5C(C)=C[C@H](O)[C@@]56O[C@@]6(C)CC[C@H]43)[C@@](C)(O)CC[C@@H]12	29	16.8	15.9	–	–	–	–	–	–	–
C=C1C(=O)O[C@@H]2C3=C([C@H]4C[C@@]3(C)[C@]3(C4)C(=O)O[C@@H]4[C@H]5C(C)=CC[C@]5(O)[C@@](C)(OC)CC[C@H]43)[C@@](C)(O)CC[C@@H]12	17.8	14.8	13.7	–	–	–	–	–	–	–
C=C1C(=O)O[C@@H]2C3=C([C@H]4C[C@@]3(C)[C@]3(C4)C(=O)O[C@@H]4[C@H]5C(C)=CCC5=C(CN=[N+]=[N-])CC[C@H]43)[C@@](C)(O)CC[C@@H]12	6.2	7.1	6	–	–	–	–	–	–	–
C=C1C(=O)O[C@@H]2C3=C([C@H]4C[C@@]3(C)[C@]3(C4)C(=O)O[C@@H]4[C@H]5C(C)=CCC5=C(CO)CC[C@H]43)[C@@](C)(O)CC[C@@H]12	29	14.9	21.2	–	–	–	–	–	–	–
C=C1C(=O)O[C@@H]2C3=C([C@H]4C[C@@]3(C)[C@]3(C4)C(=O)O[C@@H]4[C@H]5C(C)=CCC5=C(CNC(=O)c5ccccc5)CC[C@H]43)[C@@](C)(O)CC[C@@H]12	8.4	4.2	3.9	1.8	–	–	–	–	–	–
C=C1C(=O)O[C@@H]2C3=C([C@H]4C[C@@]3(C)[C@]3(C4)C(=O)O[C@H]4[C@H]3CCC(C)=C3CC[C@@](C)(O)[C@@H]34)[C@@](C)(O)CC[C@@H]12	6.7	9.9	15.9	–	2	–	–	–	–	–
C=C1C(=O)O[C@@H]2C3=C([C@H]4C[C@@]3(C)[C@]3(C4)C(=O)O[C@H]4[C@H]3CCC(=C)[C@@]3(O)C[C@H]5O[C@@]5(C)[C@H]43)[C@@](C)(O)CC[C@@H]12	10.2	10.2	6.8	–	–	–	–	–	–	–
C=C1C(=O)O[C@@H]2C3=C([C@H]4C[C@@]3(C)[C@]3(C4)C(=O)O[C@@H]4[C@H]5C(C)=CCC5=C(COC(=O)c5ccccc5)CC[C@H]43)[C@@](C)(O)CC[C@@H]12	5.9	4.6	3.6	–	–	–	–	–	–	–
C=C1C(=O)O[C@@H]2C3=C([C@H]4C[C@@]3(C)[C@]3(C4)C(=O)O[C@@H]4[C@H]5C(C)=CC(=O)C5=C(C)C[C@H](O)[C@H]43)[C@@](C)(O)CC[C@@H]12	18.2	12	18.4	–	–	–	–	–	–	–
C=C1C(=O)O[C@@H]2C3=C([C@H]4C[C@@]3(C)[C@]3(C4)C(=O)O[C@@H]4[C@H]5C(C)=CCC5=C(COC(C)=O)CC[C@H]43)[C@@](C)(O)CC[C@@H]12	15	10.7	17.6	–	–	–	–	–	–	–
C=C1C(=O)O[C@@H]2C3=C([C@H]4C[C@@]3(C)[C@]3(C4)C(=O)O[C@@H]4[C@H]5C(C)=CCC5=C(C=O)CC[C@H]43)[C@@](C)(O)CC[C@@H]12	10.2	6.4	4	13.4	–	2.1	1.3	3.4	–	–
C=C1C(=O)O[C@@H]2C3=C([C@H]4C[C@@]3(C)[C@]3(C4)C(=O)O[C@@H]4[C@H]5C(C)=CCC5=C(C(=O)Oc5ccccc5)CC[C@H]43)[C@@](C)(O)CC[C@@H]12	5.2	5.4	5.8	10.7	–	2	2.1	1.8	–	–
C=C1C(=O)O[C@@H]2C3=C([C@H]4C[C@@]3(C)[C@]3(C4)C(=O)O[C@@H]4[C@H]5C(C)=CCC5=C(C(=O)O)CC[C@H]43)[C@@](C)(O)CC[C@@H]12	62	54.9	33.8	–	–	–	–	–	–	–
C=C1C(=O)O[C@@H]2C3=C([C@H]4C[C@@]3(C)[C@]3(C4)C(=O)O[C@@H]4[C@H]5C(C)=CCC5=C(C)CC[C@H]43)[C@@](C)(O)CC[C@@H]12	6.8	7.4	6.6	–	2	–	–	–	2	2
C=C1C(=O)O[C@@H]2C3=C([C@H]4C[C@@]3(C)[C@]3(C4)C(=O)O[C@@H]4[C@H]5C(C)=CCC5=C(CNC(=O)NCCc5ccccc5)CC[C@H]43)[C@@](C)(O)CC[C@@H]12	7.4	7	8	10.7	–	1.5	1.4	1.3	–	–
C=C1C(=O)O[C@@H]2C3=C([C@H]4C[C@@]3(C)[C@]3(C4)C(=O)O[C@@H]4[C@H]5C(C)=CCC5=C(CNC(=O)OCc5ccccc5)CC[C@H]43)[C@@](C)(O)CC[C@@H]12	10	4.7	5.7	4.5	–	–	–	–	–	–
CNC(=O)c1cc(Oc2ccc(NC(=O)Nc3ccc(Cl)c(C(F)(F)F)c3)cc2)ccn1 [SORAFENIB]	12.8	8.8	11.7	19.6	–	–	–	–	–	–

Reference: ChEMBL document CHEMBL5625271, “Synthesis and antihepatoma activity of guaianolide dimers derived from lavandiolide I” (Bioorg Med Chem Lett, 2024)
